# According to PMC9743428 (ACS Medicinal Chemistry Letters, 2022):
# Tests used:
# [1] = tested on: FFAR1 K259A; assay: Mutagenesis, IP accumulation, FFAR1 K259A mutant; type: cell-based, human
# [2] = target: FFAR1 A83F (Homo sapiens, UniProt O14842, A83F); assay: Mutagenesis, IP accumulation, FFAR1 A83F mutant; type: cell-based
# [3] = tested on: FFAR1 mutants (Y12, E65, A66, K259, L262); assay: Mutagenesis of the extracellular binding site, IP accumulation; type: cell-based, human
# [4] = target: T1, FFAR4 (Homo sapiens, UniProt Q5NUL3); assay: IP accumulation assay in transiently transfected COS7 cells, FFAR4; type: cell-based
# T1 sequence (Q5NUL3 1-361): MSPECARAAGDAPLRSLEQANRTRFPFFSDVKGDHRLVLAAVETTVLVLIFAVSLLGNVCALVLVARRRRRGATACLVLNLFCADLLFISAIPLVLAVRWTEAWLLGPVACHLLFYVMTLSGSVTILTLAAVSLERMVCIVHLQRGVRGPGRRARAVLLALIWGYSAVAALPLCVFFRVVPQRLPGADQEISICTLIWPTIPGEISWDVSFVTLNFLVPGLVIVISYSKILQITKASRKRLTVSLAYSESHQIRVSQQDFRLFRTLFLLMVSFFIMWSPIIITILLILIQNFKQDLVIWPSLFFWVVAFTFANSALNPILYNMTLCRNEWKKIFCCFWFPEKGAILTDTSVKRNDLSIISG
# [5] = target: FFAR1 (Homo sapiens, UniProt O14842); assay: IP accumulation assay in transiently transfected COS7 cells, FFAR1; type: cell-based; conditions: for improved potency on FFAR1: as compared to the unsubstituted phenyl 54; for improved potency on FFAR1 / reduction of potency on FFAR1: range for the group
# Chain of FFAR1 (O14842 whole entry): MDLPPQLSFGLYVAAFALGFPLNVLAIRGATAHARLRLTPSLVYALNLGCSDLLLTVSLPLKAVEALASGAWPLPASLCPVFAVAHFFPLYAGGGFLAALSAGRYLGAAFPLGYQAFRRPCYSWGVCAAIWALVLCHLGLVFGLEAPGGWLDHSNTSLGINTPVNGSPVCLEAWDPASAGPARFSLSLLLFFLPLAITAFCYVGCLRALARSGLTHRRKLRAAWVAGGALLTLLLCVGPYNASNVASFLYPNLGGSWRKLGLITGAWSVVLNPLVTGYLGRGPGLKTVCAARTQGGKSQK
# Chain of FFAR1 A83F (O14842 whole entry A83F): as the sequence (O14842 whole entry) above, with A83F counted along it
smiles,measurement,setting,value
COc1ccc(F)c(-c2ccc(COc3ccc4c(c3)[C@]3(CC4)C[C@H]3C(=O)O)cc2[C@@H]2CCCC2(C)C)c1 [AM-5262],"change in efficacy, K259A versus wild-type",[1],−32%
same,impact of A83F mutation on activity,[2],none
same,effect of extracellular-site mutations on activity,[3],no effect on compound potency
Cc1cc(=O)oc2cc(OCc3nc(N)nc(Nc4ccc(C5CC5)cc4)n3)ccc12 [compound 7],activity on FFAR4,[4],entirely inactive on FFAR4
Cc1ccc(Nc2nc(N)nc(COc3ccc4c(C)cc(=O)oc4c3)n2)cc1C [compound 13],activity on FFAR4,[4],entirely inactive on FFAR4
Cc1cc(=O)oc2cc(OCc3nc(N)nc(Nc4cccc(O)c4)n3)ccc12 [compound 17],activity on FFAR1,[5],inactive
Cc1cc(=O)oc2cc(OCc3nc(N)nc(Nc4ccc(O)cc4)n3)ccc12 [compound 18],activity on FFAR1,[5],inactive
Cc1ccc(Nc2nc(N)nc(COc3cccc(N4CCCC4=O)c3)n2)cc1Cl [compound 28],loss of potency on FFAR1,[5]; versus 4-methylchroman-2-one compound 11,~6 fold
Cc1ccc(Nc2nc(N)nc(COc3cc(N4CCCC4=O)cc(C(F)(F)F)c3)n2)cc1Cl [compound 38],selectivity for FFAR1 over FFAR4,[5],selective
Cc1ccc(Nc2nc(N)nc(COc3cc(Cl)cc(N4CCCC4=O)c3)n2)cc1Cl [compound 42],gain of potency on FFAR1,[5]; versus compound 28,5 fold
Cc1ccc(Nc2nc(N)nc(COc3cc(OC(F)(F)F)cc(N4CCCC4=O)c3)n2)cc1Cl [compound 46],selectivity for FFAR4 over FFAR1,[4],selective
Cc1cc(OCc2nc(N)nc(NCCc3ccccc3)n2)cc(N2CCCC2=O)c1 [compound 54],increase of efficacy on FFAR1,[5]; as compared to compound 43,44%
Cc1cc(OCc2nc(N)nc(NCCc3cccc(Cl)c3)n2)cc(N2CCCC2=O)c1 [compound 58],improved potency on FFAR1,[5],2–8 fold
Cc1cccc(CCNc2nc(N)nc(COc3cc(C)cc(N4CCCC4=O)c3)n2)c1 [compound 59],improved potency on FFAR1,[5],2–8 fold
COc1cccc(CCNc2nc(N)nc(COc3cc(C)cc(N4CCCC4=O)c3)n2)c1 [compound 60],improved potency on FFAR1,[5],2–8 fold
Cc1cc(OCc2nc(N)nc(NCCc3cccc(C(F)(F)F)c3)n2)cc(N2CCCC2=O)c1 [compound 61],improved potency on FFAR1,[5],2–8 fold
Cc1cc(OCc2nc(N)nc(NCCc3cccc(OC(F)F)c3)n2)cc(N2CCCC2=O)c1 [compound 62],improved potency on FFAR1,[5],2–8 fold
Cc1cc(OCc2nc(N)nc(NCCc3ccccc3F)n2)cc(N2CCCC2=O)c1 [compound 70],selectivity for FFAR1 over FFAR4,[5],highly selective for FFAR1
Cc1cc(OCc2nc(N)nc(NCCc3ccccc3N3CCOCC3)n2)cc(N2CCCC2=O)c1 [compound 74],activity on FFAR1,[5],entirely inactive
same,selectivity for FFAR4 over FFAR1,[4],FFAR4-selective
Cc1cc(OCc2nc(N)nc(NCCc3cc(F)ccc3F)n2)cc(N2CCCC2=O)c1 [compound 75],loss of efficacy on FFAR1,[5]; versus compound 54,−26%
Cc1cc(OCc2nc(N)nc(NCCc3cc(C)ccc3F)n2)cc(N2CCCC2=O)c1 [compound 76],selectivity for FFAR1 over FFAR4,[5],highly selective for FFAR1
Cc1cc(OCc2nc(N)nc(NCCc3cc(Cl)ccc3Cl)n2)cc(N2CCCC2=O)c1 [compound 83],effect of extracellular-site mutations on activity,[3],profound effect
Cc1cc(OCc2nc(N)nc(NCCc3ccc(Cl)cc3Cl)n2)cc(N2CCCC2=O)c1 [compound 84],reduction of potency on FFAR1,[5]; versus compound 54,2−3 fold
Cc1cc(OCc2nc(N)nc(NCCc3ccc(C)cc3C)n2)cc(N2CCCC2=O)c1 [compound 85],reduction of potency on FFAR1,[5]; versus compound 54,2−3 fold
COc1ccc(Cl)cc1CCNc1nc(N)nc(COc2cc(C)cc(N3CCCC3=O)c2)n1 [compound 86],reduction of potency on FFAR1,[5]; versus compound 54,2−3 fold
Cc1cc(OCc2nc(N)nc(NCCc3c(C)cccc3C)n2)cc(N2CCCC2=O)c1 [compound 87],reduction of potency on FFAR1,[5]; versus compound 54,2−3 fold
Cc1cc(OCc2nc(N)nc(NCC3(c4cccc(Cl)c4)CC3)n2)cc(N2CCCC2=O)c1 [compound 90],activity on FFAR4,[4],loss of activity on FFAR4
Cc1cc(OCc2nc(N)nc(NC3(Cc4cccc(Cl)c4)CC3)n2)cc(N2CCCC2=O)c1 [compound 92],activity on FFAR4,[4],loss of activity on FFAR4
Cc1cc(OCc2nc(N)nc(NCC(c3c(F)cccc3F)N(C)C)n2)cc(N2CCCC2=O)c1 (centres unmarked) [compound 93],activity on FFAR4,[4],loss of activity on FFAR4
Cc1cc(OCc2nc(N)nc(NCC(c3cccc(Cl)c3)N3CCCC3)n2)cc(N2CCCC2=O)c1 (centres unmarked) [compound 94],activity on FFAR4,[4],loss of activity on FFAR4
Cc1cc(OCc2nc(N)nc(NCCc3cccc4c3OC(F)(F)O4)n2)cc(N2CCCC2=O)c1 [compound 101],selectivity for FFAR1 over FFAR4,[5],highly FFAR1-selective
